Measured values as given in patent US20100267774A1, “P38 MAP KINASE INHIBITORS” (CHROMA THERAPEUTICS LTD., priority 2007, published 2010).
Like-named read-outs stand apart in the source and are kept apart here.

Legend:
THP-1 TNFα release = test: LPS-stimulation of THP-1 cells, TNF-α release by ELISA; format: cell-based; settings: Homo sapiens, THP-1, 6 h; read-out: Inhibitor activity versus THP-1 TNFα release
Method: THP-1 cells were plated in 100 μl at a density of 4×10^4 cells/well in V-bottomed 96 well tissue culture treated plates and incubated at 37° C. in 5% CO2 for 16 hrs. 2 hrs after the addition of the inhibitor in 100 μl of tissue culture media, the cells were stimulated with LPS (E coli strain 005:B5, Sigma) at a final concentration of 1 μg/ml and incubated at 37° C. in 5% CO2 for 6 hrs. TNF-α levels were measured from cell-free supernatants by sandwich ELISA (R&D Systems #QTA00B).

p38 MAP Kinase a = biological target: T1, p38 MAP Kinase a (Homo sapiens, UniProt Q16539); test: p38 MAP Kinase activity, radiometric filter-binding assay (Upstate); format: biochemical
T1 construct: purchased Upstate (Dundee UK)
T1 sequence (Q16539 whole entry): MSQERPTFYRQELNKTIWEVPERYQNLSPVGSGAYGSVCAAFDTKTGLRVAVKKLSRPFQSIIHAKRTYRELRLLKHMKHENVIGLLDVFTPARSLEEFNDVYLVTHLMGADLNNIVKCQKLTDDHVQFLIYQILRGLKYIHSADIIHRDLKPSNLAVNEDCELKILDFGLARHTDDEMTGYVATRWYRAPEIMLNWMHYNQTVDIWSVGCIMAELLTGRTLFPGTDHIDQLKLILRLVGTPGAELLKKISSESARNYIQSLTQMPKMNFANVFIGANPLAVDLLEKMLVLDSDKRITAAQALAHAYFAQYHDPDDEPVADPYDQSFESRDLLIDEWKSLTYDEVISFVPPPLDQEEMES

[1] = tested on: phosphorylation of MAPKAP-2 in HUT 78 cells; test: Cellular assay for the phosphorylation of MAPKAP-2 by p38 in HUT 78 cells; format: cell-based; settings: for IC50: Homo sapiens, HuT78, non-macrophage cell line HUT 78, anisomycin 10 μM, read-out: Inhibition of phosphorylation of MAPKAP-2 in HUT 78 cells (IC50); for Ratio IC50s in HUT 78 to U937 cells: macrophage selectivity
Method: U937 or HUT78 cells were plated in RPMI 1640, and were incubated at 37° C., 5% CO2 for 18 hours. 10 mM stocks of compounds were diluted media/0.1% DMSO to give a log or semi-log dilution series. The wells for ‘no treatment’ and ‘anisomycin’ were treated with 0.1% DMSO only. The cells were incubated at 37° C., 5% CO2 for a further 4 hours. Anisomycin was added to all wells except ‘no treatment’ at a final concentration of 10 μM. The cells were incubated at 37° C., 5% CO2 for 30 minutes before harvest. Plates were stood on ice whilst harvesting, and all the following steps were carried out at 4° C. The cells were pelleted at 1000 rpm for 10 minutes at 4° C., the media aspirated, and the pellet washed with cold PBS. The pellets were lysed in 120 μl of SDS lysis buffer (62.5 mM Tris, pH 6.8, 2% SDS, 10% glycerol, 50 mM DTT, with protease inhibitors and phosphatase inhibitors added according to the manufacturers' recommendations). After 30 minutes on ice, the samples were sonicated for 5 seconds before centrifugation at 13,000 rpm 4° C. for 10 minutes to remove cell debris. 10 μl of the resulting gel samples were loaded per lane on NOVEX 4-12% Bis-Tris MOPS gels. Membranes from western transfer of gels were blotted with anti-phospho MAPKAP-2, anti-phospho HSP27 and anti-GAPDH according to the manufacturers' instructions. Signal was visualised using HRP-linked anti-rabbit or anti-mouse antibodies, ECL reagent and ECL film. IC50 values for the various compounds were visualised from the resulting photographic images, using both band-shift and signal intensity.
In cells, p38 activity leads to the phosphorylation of the protein MAPKAP-2 and thus one method to assess the inhibition of p38 inside cells is to look at the decrease in the levels of phosphorylated MAPKAP-2. Table 1 lists the IC50s as measured by the level of MAPKAP-2 phosphorylation in a macrophage cell line (U937) and non-macrophage cell line (HUT78). […] In contrast, example 33 that has an esterase motif that would be expected to confer macrophage selectivity, has an activity in the macrophage cell line (U937) which is 100 fold greater than in the non-macrophage cell line (HUT 78).

[2] = tested on: phosphorylation of MAPKAP-2 in U937 cells; test: Cellular assay for the phosphorylation of MAPKAP-2 by p38 in U937 cells; format: cell-based; settings: Homo sapiens, U-937; macrophage cell line U937; anisomycin 10 μM; read-out: Inhibition of phosphorylation of MAPKAP-2 in U937 cells (IC50)
Method: U937 or HUT78 cells were plated in RPMI 1640, and were incubated at 37° C., 5% CO2 for 18 hours. 10 mM stocks of compounds were diluted media/0.1% DMSO to give a log or semi-log dilution series. The wells for ‘no treatment’ and ‘anisomycin’ were treated with 0.1% DMSO only. The cells were incubated at 37° C., 5% CO2 for a further 4 hours. Anisomycin was added to all wells except ‘no treatment’ at a final concentration of 10 μM. The cells were incubated at 37° C., 5% CO2 for 30 minutes before harvest. Plates were stood on ice whilst harvesting, and all the following steps were carried out at 4° C. The cells were pelleted at 1000 rpm for 10 minutes at 4° C., the media aspirated, and the pellet washed with cold PBS. The pellets were lysed in 120 μl of SDS lysis buffer (62.5 mM Tris, pH 6.8, 2% SDS, 10% glycerol, 50 mM DTT, with protease inhibitors and phosphatase inhibitors added according to the manufacturers' recommendations). […]
In cells, p38 activity leads to the phosphorylation of the protein MAPKAP-2 and thus one method to assess the inhibition of p38 inside cells is to look at the decrease in the levels of phosphorylated MAPKAP-2. Table 1 lists the IC50s as measured by the level of MAPKAP-2 phosphorylation in a macrophage cell line (U937) and non-macrophage cell line (HUT78). […]

[3] = compound as such (Example 33: Ester), read-out: Inhibition of P38α (IC50 nM)

| IC50 (THP-1 TNFα release) [nM] | IC50 (p38 MAP Kinase a; Acid (carboxylic acid of the ester), read-out: Inhibition of P38α (IC50 nM)) [nM] | IC50 (p38 MAP Kinase a; IC50 range, read-out: Inhibitor activity versus p38 MAPKa) [nM] | IC50 (p38 MAP Kinase a; [3]) [nM] | Compound | IC50 [1] [nM] | activity in the macrophage cell line (U937) greater than in the non-macrophage cell line (HUT 78) ([1]; MAPKAP-2 phosphorylation) [fold] | Ratio IC50s in HUT 78 to U937 cells ([1]; MAPKAP-2 phosphorylation) | IC50 [2] [nM] |
| --- | --- | --- | --- | --- | --- | --- | --- | --- |
| < 100 | 0.5 | 100 to 1000 | 100 | CC(C)C[C@H](NCCc1cc(F)c(-n2c(N)c(C(=O)c3ccc(F)cc3F)ccc2=O)c(F)c1)C(=O)OC1CCCC1 [Example 33, cyclopentyl N-(2-{4-[6-amino-5-(2,4-difluorobenzoyl)-2-oxopyridin-1(2H)-yl]-3,5-difluorophenyl}ethyl)-L-leucinate] | 73 | 100 | 112 | 0.7 |
|  |  |  | 47 | Nc1c(C(=O)c2ccc(F)cc2F)ccc(=O)n1-c1c(F)cccc1F [Compound I, reference compound] | 10 |  | 1.1 | 9 |
